Data reported in article PMC11249626, “Fluorophore-Labeled Pyrrolones Targeting the Intracellular Allosteric Binding Site of the Chemokine Receptor CCR1” (ACS Pharmacology & Translational Science, 2024).
Where two headings read alike, the source gives them in different places.

Tests used:
CCR2 [1] = target: T1, CCR2 (Homo sapiens, UniProt P41597); parameters: method as in PMID 30256641; conditions: cited from earlier work
T1 construct: host or cells: HEK293T, transient
T1 sequence (P41597 1-360 isoform P41597-2): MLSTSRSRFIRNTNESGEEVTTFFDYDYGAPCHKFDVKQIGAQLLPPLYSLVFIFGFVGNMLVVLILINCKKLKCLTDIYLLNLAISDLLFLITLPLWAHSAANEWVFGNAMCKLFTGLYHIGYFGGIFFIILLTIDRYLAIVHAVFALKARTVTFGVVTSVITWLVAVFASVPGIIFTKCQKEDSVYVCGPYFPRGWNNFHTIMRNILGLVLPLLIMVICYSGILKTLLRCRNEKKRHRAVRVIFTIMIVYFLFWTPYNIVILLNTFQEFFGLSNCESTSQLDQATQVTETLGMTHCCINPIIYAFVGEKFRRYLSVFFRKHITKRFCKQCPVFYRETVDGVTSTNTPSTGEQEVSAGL

CCR1 [2] = target: T2, CCR1 (Homo sapiens, UniProt P32246); parameters: Promega pNLF1-C (Nluc) #CCR010TN00; host or cells: HEK293T, transient (PEI); method as in PMID 30256641; conditions: binding; cited from earlier work
T2 sequence (P32246 1-355): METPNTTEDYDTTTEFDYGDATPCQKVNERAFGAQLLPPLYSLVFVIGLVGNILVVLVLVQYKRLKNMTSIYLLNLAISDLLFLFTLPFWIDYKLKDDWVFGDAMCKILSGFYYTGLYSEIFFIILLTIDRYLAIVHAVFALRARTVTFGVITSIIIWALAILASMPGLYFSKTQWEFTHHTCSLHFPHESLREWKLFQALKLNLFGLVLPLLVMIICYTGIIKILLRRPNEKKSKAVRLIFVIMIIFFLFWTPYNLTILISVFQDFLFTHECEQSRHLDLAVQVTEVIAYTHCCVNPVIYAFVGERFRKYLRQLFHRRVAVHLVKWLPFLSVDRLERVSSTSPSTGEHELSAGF

CCR2 [3] = target: T1, CCR2; parameters: method as in PMID 35838163; conditions: membrane-based setup; cited from earlier work
CCR2 [4] = target: T1, CCR2; parameters: method as in PMID 35838163; conditions: cellular setup; cited from earlier work
CCR1 [5] = target: T2, CCR1; parameters: Promega pNLF1-C (Nluc) #CCR010TN00; host or cells: HEK293T, transient (PEI); method as in PMID 35838163; conditions: cited from earlier work
CCR2 [6] = target: T1, CCR2; assay: NanoBRET competition binding assay for CCR2 based on 7, as previously reported; conditions: compound at 100 μM; read-out: % inh. of tracer binding, CCR2
Excerpt: With 6 (Figure 1), a first lead structure for intracellular CCR1 inhibition that features an approximately 20-fold CCR1 over CCR2 selectivity was previously discovered by Ortiz Zacarías et al.([33]) In order to discover new chemotypes for selective CCR1 over CCR2 inhibition, we aimed to apply our novel NanoBRET competition binding assay for CCR1 in combination with our recently published CCR2 competition binding assay based on 7.[47] In our first attempt, we screened a small in-house library enriched with intracellular GPCR ligands and structural analogues thereof. […] Additionally, we tested 23 for binding to the IABS of CCR9 and CXCR2 using our recently reported NanoBRET-based assay platform (Figure 6C).[44],[45] In the course of these studies, we detected no binding of 23 to CCR9 and CXCR2 up to a concentration of 20 μM. Since cell lineage-dependent effects have been observed for CCR1 antagonists,[59] we studied the CCR1 over CCR2 selectivity of 23 by using a previously reported radioligand binding assay with membrane preparations from osteosarcoma (U2OS) cells stably expressing human CCR1 or CCR2.[33] […] In agreement with these previous reports,[33] we observed a reduction in CCR1 over CCR2 selectivity when moving from membrane-based binding assays to cell-based functional assays. […] To investigate a potential signaling bias of 23, we tested the compound by means of a NanoBiT miniGi recruitment assay.[60] […] Thus, this indicated no strong signaling bias of 23 (Figures S9E and S10C). To elucidate the SAR of this new scaffold for selective CCR1 over CCR2 inhibition, we synthesized several analogues of 23 (24–40) and tested them by means of our NanoBRET competition binding assays (Schemes S2 and S3, Table 1, Figures 6F and S11). First, we aimed to examine the impact of the stereochemistry of 23 on CCR1 affinity. As for the structurally related pyrrolone 4, large differences in CCR2 affinity between the eutomer 4-[R] and the distomer 4-[S] were described.[61] […] Furthermore, we identified the 4-hydroxyphenethyl group at position 1 of the pyrrolone scaffold as highly important for CCR1 affinity and selectivity. Its presence seems to block CCR2 binding, also when combined with the structural features of the high-affinity CCR2 ligand 5, as exemplified by 24. Especially the 4-hydroxy group at this moiety is essential for CCR1 binding (see 25 and 26). […] In position 5 of the pyrrolone, several aromatic and aliphatic substituents were tolerated (see 31–35).

CCR9 = target: T3, CCR9 (Homo sapiens, UniProt P51686); assay: NanoBRET-based assay for binding to the IABS of CCR9, as previously reported; conditions: compound at 20 μM; read-out: % inh. of tracer binding, CCR9
T3 construct: host or cells: HEK293T, transient
T3 sequence (P51686 1-369): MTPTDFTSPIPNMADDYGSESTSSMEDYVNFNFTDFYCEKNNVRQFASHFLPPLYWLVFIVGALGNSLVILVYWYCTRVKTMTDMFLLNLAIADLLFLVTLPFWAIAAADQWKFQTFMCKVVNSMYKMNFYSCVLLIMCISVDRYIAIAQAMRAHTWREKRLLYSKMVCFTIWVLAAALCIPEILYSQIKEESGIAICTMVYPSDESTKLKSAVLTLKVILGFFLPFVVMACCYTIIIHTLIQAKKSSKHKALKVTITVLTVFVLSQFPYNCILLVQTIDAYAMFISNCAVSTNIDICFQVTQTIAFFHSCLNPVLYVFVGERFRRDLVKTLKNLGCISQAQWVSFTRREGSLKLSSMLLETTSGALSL
Excerpt: (§1) With 6 (Figure 1), a first lead structure for intracellular CCR1 inhibition that features an approximately 20-fold CCR1 over CCR2 selectivity was previously discovered by Ortiz Zacarías et al.([33]) In order to discover new chemotypes for selective CCR1 over CCR2 inhibition, we aimed to apply our novel NanoBRET competition binding assay for CCR1 in combination with our recently published CCR2 competition binding assay based on 7.[47] In our first attempt, we screened a small in-house library enriched with intracellular GPCR ligands and structural analogues thereof. […] Additionally, we tested 23 for binding to the IABS of CCR9 and CXCR2 using our recently reported NanoBRET-based assay platform (Figure 6C).[44],[45] In the course of these studies, we detected no binding of 23 to CCR9 and CXCR2 up to a concentration of 20 μM. Since cell lineage-dependent effects have been observed for CCR1 antagonists,[59] we studied the CCR1 over CCR2 selectivity of 23 by using a previously reported radioligand binding assay with membrane preparations from osteosarcoma (U2OS) cells stably expressing human CCR1 or CCR2.[33] […] In agreement with these previous reports,[33] we observed a reduction in CCR1 over CCR2 selectivity when moving from membrane-based binding assays to cell-based functional assays. […]

CXCR2 = target: T4, CXCR2 (Homo sapiens, UniProt P25025); assay: NanoBRET-based assay for binding to the IABS of CXCR2, as previously reported; conditions: compound at 20 μM; read-out: % inh. of tracer binding, CXCR2
T4 construct: host or cells: HEK293T, transient
T4 sequence (P25025 1-360): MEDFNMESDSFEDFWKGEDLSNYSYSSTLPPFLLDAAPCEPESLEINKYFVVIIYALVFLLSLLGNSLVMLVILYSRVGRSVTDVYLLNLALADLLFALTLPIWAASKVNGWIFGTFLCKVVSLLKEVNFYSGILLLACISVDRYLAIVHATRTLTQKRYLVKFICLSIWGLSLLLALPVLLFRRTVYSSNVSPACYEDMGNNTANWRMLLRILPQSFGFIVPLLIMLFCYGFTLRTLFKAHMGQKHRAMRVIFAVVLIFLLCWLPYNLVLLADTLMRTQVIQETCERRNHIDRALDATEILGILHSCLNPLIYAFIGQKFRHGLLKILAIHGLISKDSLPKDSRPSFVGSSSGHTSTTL
Excerpt: as §1

CCR1 [7] = target: T2, CCR1; assay: Membrane-based NanoBRET competition assay with 12 (2000 nM) and CCR1_Nluc membranes; type: binding; parameters: Promega pNLF1-C (Nluc) #CCR010TN00; host or cells: HEK293T, transient (PEI); conditions: 12 (2000 nM)
CCR1 [8] = target: T2, CCR1; assay: Live cell NanoBRET binding assay, HEK293T cells expressing CCR1_Nluc; parameters: Promega pNLF1-C (Nluc) #CCR010TN00; host or cells: HEK293T, transient (PEI); conditions: 12 (1000 nM), live HEK293T cells; read-out: Ki, live cells

Which “CCR2, % @ 1 μM” value (CCR2 [1]) does the source give for `O=C(C1=C(O)C(=O)N(c2ccc(Br)cc2F)C1c1cccc(Br)c1)C1CC1` (centres unmarked) [compound 6] here?
The value was 45%.

And the “CCR1 over CCR2 selectivity” value (CCR1 [2])?
The value was “approximately 20 fold”.

Which Kd (CCR2 [3]) does the source give for `CN(C)c1ccc2c(-c3cc(C(=O)NCCOCCOCCn4cc(CNC(=O)c5ccc(Oc6ncc(Cl)cc6NS(=O)(=O)c6ccc(Cl)c(C(F)(F)F)c6)cc5)nn4)ccc3C(=O)[O-])c3ccc(=[N+](C)C)cc-3oc2c1` [compound 7] here?
The Kd was 266 nM.

And the Kd (CCR2 [4])?
Its Kd is 114 nM.

What about the “KD(CCR1) / binding to CCR1” value (CCR1 [5]) of the same compound?
Its value is “no relevant binding”.

With `NC(=O)CSc1nnc(-c2ccc(Cl)cc2)n1C1CCCCC1` [compound 43] as the compound, how does the inhibition at 100 µM (CCR2 [6]) read?
The inhibition at 100 µM was 29%.

What about the inhibition at 20 µM (CCR9) of the same compound?
Its inhibition at 20 µM is 15%.

What about the inhibition at 20 µM (CXCR2) of the same compound?
The inhibition at 20 µM was 2%.

What about the Ki (CCR1 [7]; CCR1_Nluc membranes, read-out: Ki, CCR1 (converted)) of the same compound?
Its Ki is 357 nM.

What about the “% inh. of tracer binding, CCR1” value (CCR1 [7]; compound at 20 μM) of the same compound?
Its value is ≥ 50%.

What about the Ki (CCR1 [8]) of the same compound?
Its Ki is 1290 nM.
